“Also recorded” adds a separate entry of the source.
What was measured:
influenza A viruses = experiment: Selectivity index summary (ratio between CC50 and EC50) on the viruses; type: cell-based, influenza A virus; conditions: summary over the viruses tested (FIG. 4)
H3N2 A/Moscow/10/99 = type: cell-based, influenza A virus
H5N1 A/Turkey/582/2006 = type: cell-based, influenza A virus
[1] = system: pandemic H1N1 virus (A/California/07/2009); type: cell-based, influenza A virus
[2] = system: H5N2 A/Finch/England/2051/94; type: cell-based, influenza A virus
[3] = system: H1N1 A/New Caledonia/20/99; type: cell-based, influenza A virus
in vitro = conditions: human
[4] = system: H7N1 A/Chicken/Italy/2076/99; type: cell-based, influenza A virus

| SMILES | inhibitor class by selectivity index (SI = CC50/EC50) (influenza A viruses) | inhibition of the infectious cycle of H3N2 virus (H3N2 A/Moscow/10/99) | inhibition of the infectious cycle of H5N1 virus (H5N1 A/Turkey/582/2006) | antiviral activity on pandemic H1N1 virus [1] | inhibition of the infectious cycle of H5N2 virus [2] | inhibition of the infectious cycle of H1N1 virus [3] | CC50 (in vitro) [µM] | inhibition of the infectious cycle of low-MOI H7N1 virus [4] | inhibition of the infectious cycle of low-MOI H1N1 virus [3] | inhibition of the infectious cycle of low-MOI pandemic H1N1 virus [1] |
| --- | --- | --- | --- | --- | --- | --- | --- | --- | --- | --- |
| COc1ccc(OC)c(C(O)CNC(=O)CN)c1.Cl (racemic) [midodrine, Acetamide, 2-amino-N-[2-(2,5-dimethoxyphenyl)-2-hydroxyethyl]-monohydrochloride, (±)-] | moderate (a moderate inhibitor has an SI between 10 and 50) | inhibits the infectious cycle of all the viruses tested | inhibits the infectious cycle of all the viruses tested | characterized by antiviral activity; also recorded: inhibits the infectious cycle of all the viruses tested | inhibits the infectious cycle of all the viruses tested | inhibits the infectious cycle of all the viruses tested | – | – | – | – |
| CCN[C@H]1CN(CCCOC)S(=O)(=O)c2sc(S(N)(=O)=O)cc21 [brinzolamide, (R)-(+)-4-Ethylamino-2-(3-methoxypropyl)-3,4-dihydro-2H-thieno[3,2-e]-1,2-thiazine-6-sulfonamide-1,1-dioxide] | – | inhibits primarily the infectious cycle | – | do not seem to have an impact | – | – | ≥ 666 | inhibits primarily the infectious cycle | inhibits primarily the infectious cycle | – |
| Cc1nccc2c1[nH]c1cc(O)ccc12 [harmol, 1-Methyl-9H-beta-carbolin-7-ol] | – | inhibits the infectious cycle | inhibits the infectious cycle | characterized by antiviral activity | inhibits the infectious cycle | – | 95 | – | – | inhibits the infectious cycle |
| C1COC(NC(C2CC2)C2CC2)=N1 [rilmenidine] | – | inhibits the infectious cycle | – | do not seem to have an impact | inhibits the infectious cycle | inhibits the infectious cycle | 1120 | – | – | – |
